Experimental data from US6245780A, “Tetrahydroisoquinolinyl-indole derivatives for the treatment of depression” (American Home Products Corp, priority 2000, dated 2001).
Like-named read-outs stand apart in the source and are kept apart here.

Columns and labels:
[1] = target: T1, human 5-HT1A receptor (Homo sapiens, UniProt P08908); assay: human 5-HT1A receptor binding, [3H]8-OH-DPAT radioligand, membranes of 5-HT1A.CHO cells; details: for inhibition at 1 µM: 1 uM compound, value in parentheses, read-out: 5-HT1A % inh @ 1 uM
T1 construct: expressed in transfected cells; host or cells: Chinese hamster ovary cells (5-HT1A.CHO)
T1 sequence (P08908 1-422): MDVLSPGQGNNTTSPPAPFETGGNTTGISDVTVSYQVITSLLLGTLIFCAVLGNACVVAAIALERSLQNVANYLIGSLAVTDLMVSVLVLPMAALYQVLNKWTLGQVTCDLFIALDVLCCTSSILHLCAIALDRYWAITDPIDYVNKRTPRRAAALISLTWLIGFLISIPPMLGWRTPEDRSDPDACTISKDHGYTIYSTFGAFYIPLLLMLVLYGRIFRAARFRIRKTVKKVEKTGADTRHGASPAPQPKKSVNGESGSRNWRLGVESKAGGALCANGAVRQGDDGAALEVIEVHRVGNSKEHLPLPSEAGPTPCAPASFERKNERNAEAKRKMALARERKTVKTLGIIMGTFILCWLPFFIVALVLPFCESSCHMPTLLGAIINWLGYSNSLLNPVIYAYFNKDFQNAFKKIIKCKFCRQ
Protocol: (§1) The PCR cloning of the human 5-HT1A receptor subtype from a human genomic library has been described previously by Chanda et al., Mol. Pharmacol., 43:516 (1993). A stable Chinese hamster ovary cell line expressing the human 5-HT1A receptor subtype (5-HT1A.CHO cells) was employed throughout this study. Cells were maintained in DMEM supplemented with 10% fetal calf serum, non-essential amino acids and penicillin/streptomycin.
Cells were grown to 95-100% confluency as a monolayer before membranes were harvested for binding studies. Cells were gently scraped from the culture plates, transferred to centrifuge tubes, and washed twice by centrifugation (2000 rpm for 10 min., 4° C.) in buffer (50 mM Tris; pH 7.5). The resulting pellets were aliquoted and maintained at -80° C. On the day of assay, the cells were thawed on ice, and resuspended in buffer. Studies were conducted using [^3 H]8-OH-DPAT as the radioligand. The binding assay was performed in 96 well microtiter plates in a final total volume of 250 μL of buffer. Comparison experiments were performed by using 7 concentrations of unlabelled drug and a final ligand concentration of 1.5 nM. Non-specific binding was determined in the presence of 10 μM 5HT. Saturation analysis was conducted by using [^3 H]8-OH-DPAT at concentrations ranging from 0.3-30 nM. Following a 30 minute incubation at room temperature, the reaction was terminated by the addition of ice cold buffer and rapid filtration using a M-96 Brandel Cell Harvester (Gaithersburg, Md.) through a GF/B filter presoaked for 30 minutes in 0.5% polyethyleneimine.

[2] = target: T2, 5-HT1A cloned receptor (Homo sapiens, UniProt P08908); assay: [35S]-GTPγS binding assay, 5-HT1A cloned receptor membrane fragments; format: biochemical; details: maximum agonist response defined by excess 8-OH-DPAT; value in parentheses; read-out: GTPgS % EMax
T2 construct: expressed in transfected cells; host or cells: Chinese hamster ovary cells (5-HT1A.CHO)
T2 sequence (P08908 1-422): T1 sequence (P08908 1-422)
Excerpt: as §1
The [^35 S]-GTPγS binding assay was similar to that used by Lazareno and Birdsall, Br. J. Pharmacol. 109:1120 (1993). Briefly, 5-HT1A cloned receptor membrane fragments (as used for 5-HT1A receptor binding assays) were stored at -70° C. When needed, membranes were rapidly thawed, centrifuged at 40,000×g for 10 minutes and resuspended at 4° C. for 10 minutes in assay buffer (25 mM HEPES, 3 mM MgCl2, 100 mM NaCl, 1 mM EDTA, 10 uM GDP, […], pH 8.0). These membranes were then incubated for 30 min at 30° C. with [^35 S]GTPgS (1 nM) in the presence of vehicle, test compound (one to eight concentrations), or excess 8-OH-DPAT to define maximum agronist response. All reactions were terminated by the addition of ice cold Tris buffer followed by rapid filtration using a Tom Tech® filtration device to separate bound from free [^35 S]GTPgS. Agonists produced an increase in the amount of [^35 S]GTPgS bound whereas antagonists produced no increase in binding. Bound radioactivity was counted and analyzed as above.

[3] = target: T3, serotonin transporter (Rattus norvegicus, UniProt P31652); assay: affinity for the serotonin transporter (ST), 3H-paroxetine, rat frontal cortical membranes; format: binding, rat (male Sprague-Dawley); details: 3H-paroxetine 0.1 nM, 60 min, 25° C.
T3 construct: frontal cortical membranes prepared from male Sprague-Dawley rats; from tissue; host or cells: rat (male Sprague-Dawley) frontal cortex membranes
T3 sequence (P31652 whole entry): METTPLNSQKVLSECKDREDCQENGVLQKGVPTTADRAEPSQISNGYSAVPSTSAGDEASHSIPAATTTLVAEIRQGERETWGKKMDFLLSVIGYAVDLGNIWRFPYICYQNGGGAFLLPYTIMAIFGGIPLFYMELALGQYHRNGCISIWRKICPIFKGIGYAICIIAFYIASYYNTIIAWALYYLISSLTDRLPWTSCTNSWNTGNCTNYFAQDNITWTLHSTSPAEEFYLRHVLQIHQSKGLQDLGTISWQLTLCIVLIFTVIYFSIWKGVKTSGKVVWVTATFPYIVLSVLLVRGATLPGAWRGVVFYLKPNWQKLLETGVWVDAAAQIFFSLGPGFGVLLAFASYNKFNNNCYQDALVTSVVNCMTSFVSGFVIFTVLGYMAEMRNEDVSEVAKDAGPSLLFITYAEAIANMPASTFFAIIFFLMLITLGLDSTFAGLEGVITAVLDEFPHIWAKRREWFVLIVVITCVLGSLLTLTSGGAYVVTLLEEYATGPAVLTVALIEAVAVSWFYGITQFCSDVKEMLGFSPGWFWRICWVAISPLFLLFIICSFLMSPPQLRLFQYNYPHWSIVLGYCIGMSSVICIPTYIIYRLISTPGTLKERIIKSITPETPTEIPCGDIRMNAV
Protocol: A protocol similar to that used by Cheetham et al., Neuropharmacol., 32:737 (1993) was used to determine the affinity of compounds for the serotonin transporter. Briefly, frontal cortical membranes prepared from male Sprague-Dawley rats were incubated with ^3 H-parsoxetinc (0.1 nM) for 60 min at 25° C. All tubes also contained either vehicle, test compound (one to eight concentrations), or a saturating concentration of fluoxetine (10 μM) to define […]. All reactions were terminated by the addition of ice cold Tris buffer followed by rapid filtration using a Tom Tech filtration device to separate bound from free ^3 H-paroxetine. Bound radioactivity was quantitated using a Wallac 1205 Beta Plate® counter. Nonlinear regression analysis was used to determine IC50 values which were converted to Ki values using the method set forth in Cheng and Prusoff, Biochem. Pharmacol., 22:3099 (1973) ([…].

[4] = [3H]8-OH-DPAT, 1.5 nM, 5-HT1A.CHO membranes, read-out: 5-HT1A Ki

Question: `COc1ccc2c(c1)CN([C@H]1CC[C@@H](c3c[nH]c4ccc(C#N)cc43)CC1)CC2` [Example 1a, 3-[(1,4-cis)-4-(7-Methoxy-3,4-dihydro-1H-isoquinolin-2-yl)-cyclohexyl]-1H-indole-5-carbonitrile] was tested. Which inhibition at 1 µM ([1]; [3H]8-OH-DPAT) did it give?
Answer: Its inhibition at 1 µM is 26%.

Question: `COc1ccc2c(c1)CN([C@H]1CC[C@H](c3c[nH]c4ccc(C#N)cc43)CC1)CC2` [Example 1b, 3-[(1,4-trans)-4-(7-Methoxy-3,4-dihydro-1H-isoquinolin-2-yl)-cyclohexyl]-1H-indole-5-carbonitrile] was tested. Which inhibition at 1 µM ([1]; [3H]8-OH-DPAT) did it give?
Answer: Its inhibition at 1 µM is 48%.

Question: For `COc1cccc2c1CN([C@H]1CC[C@@H](c3c[nH]c4ccc(C#N)cc43)CC1)CC2` [Example 2a, 3-[(1,4-cis)-4-(8-Methoxy-3,4-dihydro-1H-isoquinolin-2-yl)-cyclohexyl]-1H-indole-5-carbonitrile], which inhibition at 1 µM ([1]; [3H]8-OH-DPAT) is on record?
Answer: Its inhibition at 1 µM is 14%.

Question: Which inhibition at 1 µM ([1]; [3H]8-OH-DPAT) does the source give for `COc1cccc2c1CN([C@H]1CC[C@H](c3c[nH]c4ccc(C#N)cc43)CC1)CC2` [Example 2b, 3-[(1,4-trans)-4-(8-Methoxy-3,4-dihydro-1H-isoquinolin-2-yl)-cyclohexyl]-1H-indole-5-carbonitrile] here?
Answer: The inhibition at 1 µM was 46%.

Question: With `COc1ccc2c(c1)CCN([C@H]1CC[C@@H](c3c[nH]c4ccc(C#N)cc43)CC1)C2` [Example 3a, 3-[(1,4-cis)-4-(6-Methoxy-3,4-dihydro-1H-isoquinolin-2-yl)-cyclohexyl]-1H-indole-5-carbonitrile] as the molecule, how does the inhibition at 1 µM ([1]; [3H]8-OH-DPAT) read?
Answer: Its inhibition at 1 µM is 21%.

Question: For `COc1ccc2c(c1)CCN([C@H]1CC[C@H](c3c[nH]c4ccc(C#N)cc43)CC1)C2` [Example 3b, 3-[(1,4-trans)-4-(6-Methoxy-3,4-dihydro-1H-isoquinolin-2-yl)-cyclohexyl]-1H-indole-5-carbonitrile], which Ki [1] is on record?
Answer: The Ki was 300 nM.

Question: And the Emax [2]?
Answer: The Emax was 0%.

Question: How did the inhibition at 1 µM ([1]; [3H]8-OH-DPAT) turn out when `COc1cccc2c1CCN([C@H]1CC[C@@H](c3c[nH]c4ccc(C#N)cc43)CC1)C2` [Example 4a, 3-[(1,4-cis)-4-(5-Methoxy-3,4-dihydro-1H-isoquinolin-2-yl)-cyclohexyl]-1H-indole-5-carbonitrile] was run?
Answer: The inhibition at 1 µM was 7%.

Question: And the Emax [2]?
Answer: Its Emax is 12%.

Question: `COc1cccc2c1CCN([C@H]1CC[C@H](c3c[nH]c4ccc(C#N)cc43)CC1)C2` [Example 4b, 3-[(1,4-trans)-4-(5-Methoxy-3,4-dihydro-1H-isoquinolin-2-yl)-cyclohexyl]-1H-indole-5-carbonitrile] was tested. Which inhibition at 1 µM ([1]; [3H]8-OH-DPAT) did it give?
Answer: Its inhibition at 1 µM is 47%.

Question: And the Emax [2]?
Answer: The Emax was 33%.

Question: Which results are given for `N#Cc1ccc2[nH]cc([C@H]3CC[C@@H](N4CCc5ccccc5C4)CC3)c2c1` [Example 5a, 3-[(1,4-cis)-4-(3,4-Dihydro-1H-isoquinolin-2-yl)-cyclohexyl]-1H-indole-5-carbonitrile]?
Answer: inhibition at 1 µM ([1]; [3H]8-OH-DPAT): 0%; Ki [3]: 1.3 nM

Question: With `N#Cc1ccc2[nH]cc([C@H]3CC[C@H](N4CCc5ccccc5C4)CC3)c2c1` [Example 5b, 3-[(1,4-trans)-4-(3,4-Dihydro-1H-isoquinolin-2-yl)-cyclohexyl]-1H-indole-carbonitrile] as the molecule, how does the inhibition at 1 µM ([1]; [3H]8-OH-DPAT) read?
Answer: Its inhibition at 1 µM is 10%.

Question: Which Ki [1, 4] does the source give for `COc1cccc2c1CCN(CCCc1c[nH]c3ccc(F)cc13)C2` [Example 6, 2-[3-(5-Fluoro-1H-indol-3-yl)-propyl]-5-methoxy-1,2,3,4-tetrahydroisoquinoline] here?
Answer: Its Ki is 243 nM.

Question: And the Ki [3]?
Answer: The Ki was 1.9 nM.

Question: And the Emax [2]?
Answer: The Emax was 23%.

Question: With `COc1ccc2c(c1)CCN(CCCc1c[nH]c3ccc(F)cc13)C2` [Example 7, 2-[3-(5-Fluoro-1H-indol-3-yl)-propyl]-6-methoxy-1,2,3,4-tetrahydroisoquinoline] as the molecule, how does the Ki [1, 4] read?
Answer: Its Ki is 288 nM.

Question: And the Ki [3]?
Answer: Its Ki is 1.4 nM.

Question: What about the Emax [2] of the same molecule?
Answer: Its Emax is 100%.

Question: How did the inhibition at 1 µM ([1]; [3H]8-OH-DPAT) turn out when `Fc1ccc2[nH]cc(CCCN3CCc4ccccc4C3)c2c1` [Example 8, 2-[3-(5-Fluoro-1H-indol-3-yl)-propyl]-1,2,3,4-tertrahydroisoquinoline] was run?
Answer: The inhibition at 1 µM was 48%.

Question: What about the Ki [3] of the same molecule?
Answer: Its Ki is 4.85 nM.

Question: And the Emax [2]?
Answer: The Emax was 13%.
